The values below come from patent publication US20140011867A1, “EFFECT OF BORRELIDIN FOR CONTROLLING SOYBEAN PHYTOPHTHORA ROOT ROT” (ZHEJIANG HISUN PHARMACEUTICAL CO., LTD., priority 2011, published 2014).

Converted amounts (≈) assume the structure as drawn. Read-outs that look alike come from different tables or passages of the source.

As usually defined, the IC50 is the point on the concentration scale where inhibition reaches its midpoint.

The test concerns Phytophthora sajae Kaufmann & Gerdeman. As to the kind of experiment: Mycelial growth inhibition assay (growth rate method). On the set-up: IC50 as fraction of that of metalaxyl: unit not given beside the values. It is filed as cell-based. Here is the method:
Growth rate method was used in the assays. […] Phytophthora sajae Kaufmann & Gerdeman cultures after 7 days of culture were punched using a sterile punch (Ø0.5cm) and put on standby, and the cultures were later transferred onto […] (CA) plate culture media and placed at a temperature of 27±1° C., and colony diameters were measured after 7 days of culture.

Where [1] appears, read: mycelial growth, CA plate, 27±1° C., colony diameter after 7 days.
The mark [2] stands for this setting: mycelial growth inhibition assay.

On to `COCC(=O)N(c1c(C)cccc1C)C(C)C(=O)OC` (stereo not shown) [Metalaxyl, reference compound], for which, under “Phytophthora, 168 h, mycelial growth, CA plate, 27±1° C., colony diameter after 7 days, read-out: IC50”, the IC50 was determined as 0.35 µg/mL (≈ 1.25 µM). Besides, the IC95 under setting [1] turned out to be 6.85 µg/mL (≈ 24.5 µM).

Regarding Borrelidin, the “IC50 as fraction of that of metalaxyl” value under setting [2] is given as 1/62. In addition, the “IC95 as fraction of that of metalaxyl” value under setting [2] is 1/263. The same compound displayed an IC50 (mycelial growth inhibition assay, unit inferred) of 0.0056 µg/mL. Also, the IC95 is 0.026 (mycelial growth inhibition assay, unit not given) and 0.026 µg/mL under setting [1].
